Values joined by “and” are separate entries in the source; they are usually repeats but may differ in a detail not shown here. Equal values may be shown once.
Test system: TGR in newly transformed schistosomula (NTS)
Test: TGR inhibition in NTS with TRFS-Green fluorescent probe;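 also: untreated reference is NTS exposed to TRFS-Green probe alone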
Assay type: cell-based, S. mansoni
Details: NTS
Method: TGR inhibition in NTS was assessed using a fluorescent probe TRFS-Green (Medchemexpress)[43]. NTS prepared as previously described and cultured in M199 supplemented with 5.5 mM D-glucose, penicillin-streptomycin and 5% heat inactivated fetal bovine serum were incubated at 37 °C in a clear bottom flat well plate in a 5% CO2 incubator overnight. […] NTS were further treated with TRFS-Green (10 µM) for additional 4 h and rinsed with M199 medium to remove residual TRFS-Green. Fluorescence images were obtained using Keyence BZ-X800. The quantification of fluorescence intensity upon the uptake of TRFS-Green by NTS was performed by a fluorescent microplate imager (BioTek Cytation3) (excitation, 438 nm; emission, 538 nm) hourly for 5 h and after 24 h.

Row | SMILES | TGR inhibition visualized by TRFS-Green, Average (1hr, 5 µM) | TGR inhibition visualized by TRFS-Green, single replicate (1hr, 5 µM) | TGR inhibition visualized by TRFS-Green, Average (1hr, 15 µM) | TGR inhibition visualized by TRFS-Green, single replicate (1hr, 15 µM) | TGR inhibition visualized by TRFS-Green, Average (1hr, 30 µM) | TGR inhibition visualized by TRFS-Green, single replicate (1hr, 30 µM) | TGR inhibition visualized by TRFS-Green, Average (2hr, 5 µM) | TGR inhibition visualized by TRFS-Green, single replicate (2hr, 5 µM) | TGR inhibition visualized by TRFS-Green, Average (2hr, 15 µM) | TGR inhibition visualized by TRFS-Green, single replicate (2hr, 15 µM) | TGR inhibition visualized by TRFS-Green, Average (2hr, 30 µM) | TGR inhibition visualized by TRFS-Green, single replicate (2hr, 30 µM) | TGR inhibition visualized by TRFS-Green, Average (3hr, 5 µM) | TGR inhibition visualized by TRFS-Green, single replicate (3hr, 5 µM) | TGR inhibition visualized by TRFS-Green, Average (3hr, 15 µM) | TGR inhibition visualized by TRFS-Green, single replicate (3hr, 15 µM) | TGR inhibition visualized by TRFS-Green, Average (3hr, 30 µM) | TGR inhibition visualized by TRFS-Green, single replicate (3hr, 30 µM) | TGR inhibition visualized by TRFS-Green, Average (4hr, 5 µM) | TGR inhibition visualized by TRFS-Green, single replicate (4hr, 5 µM) | also measured
1 | Cc1oc(C2CCCCC2)nc1C(=O)N[C@@H]1C[C@@H]2C[C@H]([C@H]1C)C2(C)C [C7 (8VP108)] | 12657 | 12650 and 12664 | 10865 | 11062 and 10668 | 10431.5 | 10627 and 10236 | 18963 | 19690 and 18236 | 17493 | 17993 and 16993 | 16380.5 | 16170 and 16591 | 32388.5 | 32805 and 31972 | 28933.5 | 28944 and 28923 | 28582 | 28060 and 29104 | 35273.5 | 35655 and 34892 | TGR inhibition visualized by TRFS-Green, Average (4hr, 15 µM): 29029; TGR inhibition visualized by TRFS-Green, single replicate (4hr, 15 µM): 29202 and 28856; TGR inhibition visualized by TRFS-Green, Average (4hr, 30 µM): 28478.5; TGR inhibition visualized by TRFS-Green, single replicate (4hr, 30 µM): 28833 and 28124; TGR inhibition visualized by TRFS-Green, Average (5hr, 5 µM): 39296; TGR inhibition visualized by TRFS-Green, single replicate (5hr, 5 µM): 39469 and 39123; TGR inhibition visualized by TRFS-Green, Average (5hr, 15 µM): 32855.5; TGR inhibition visualized by TRFS-Green, single replicate (5hr, 15 µM): 32828 and 32883; TGR inhibition visualized by TRFS-Green, Average (5hr, 30 µM): 29603; TGR inhibition visualized by TRFS-Green, single replicate (5hr, 30 µM): 29933 and 29273; TGR inhibition visualized by TRFS-Green, Average (24hr, 5 µM): 44285; TGR inhibition visualized by TRFS-Green, single replicate (24hr, 5 µM): 44288 and 44282; TGR inhibition visualized by TRFS-Green, Average (24hr, 15 µM): 35708; TGR inhibition visualized by TRFS-Green, single replicate (24hr, 15 µM): 35593 and 35823; TGR inhibition visualized by TRFS-Green, Average (24hr, 30 µM): 33705.5; TGR inhibition visualized by TRFS-Green, single replicate (24hr, 30 µM): 33980 and 33431
2 | C[C@@H]1[C@H]2C[C@@H](C[C@H]1NCc1nc3ccccc3n1C1CCCCCC1)C2(C)C [C8 (9VP173)] | 11538.5 | 11535 and 11542 | 11107.5 | 11094 and 11121 | 7413.5 | 7434 and 7393 | 18549 | 18864 and 18234 | 17855.5 | 17877 and 17834 | 9154.5 | 9096 and 9213 | 28617 | 28491 and 28743 | 26316 | 26509 and 26123 | 12119 | 12004 and 12234 | 29563.5 | 29504 and 29623 | TGR inhibition visualized by TRFS-Green, Average (4hr, 15 µM): 26307.5; TGR inhibition visualized by TRFS-Green, single replicate (4hr, 15 µM): 26632 and 25983; TGR inhibition visualized by TRFS-Green, Average (4hr, 30 µM): 10530.5; TGR inhibition visualized by TRFS-Green, single replicate (4hr, 30 µM): 10830 and 10231; TGR inhibition visualized by TRFS-Green, Average (5hr, 5 µM): 37986; TGR inhibition visualized by TRFS-Green, single replicate (5hr, 5 µM): 37989 and 37983; TGR inhibition visualized by TRFS-Green, Average (5hr, 15 µM): 27117; TGR inhibition visualized by TRFS-Green, single replicate (5hr, 15 µM): 26702 and 27532; TGR inhibition visualized by TRFS-Green, Average (5hr, 30 µM): 12834; TGR inhibition visualized by TRFS-Green, single replicate (5hr, 30 µM): 12855 and 12813; TGR inhibition visualized by TRFS-Green, Average (24hr, 5 µM): 47666; TGR inhibition visualized by TRFS-Green, single replicate (24hr, 5 µM): 46698 and 48634; TGR inhibition visualized by TRFS-Green, Average (24hr, 15 µM): 29478.5; TGR inhibition visualized by TRFS-Green, single replicate (24hr, 15 µM): 29985 and 28972; TGR inhibition visualized by TRFS-Green, Average (24hr, 30 µM): 14283.5; TGR inhibition visualized by TRFS-Green, single replicate (24hr, 30 µM): 14485 and 14082
3 | C[C@@H]1[C@H]2C[C@@H](C[C@H]1NCc1nc3ccccc3n1C)C2(C)C [C12 (8VP51)] | 11939.5 | 11982 and 11897 | 10673 | 10612 and 10734 | 10618.5 | 10903 and 10334 | 23845.5 | 23846 and 23845 | 20564.5 | 20516 and 20613 | 19325.5 | 19387 and 19264 | 33943 | 33973 and 33913 | 30062 | 30013 and 30111 | 28073.5 | 28013 and 28134 | 35461 | 35481 and 35441 | TGR inhibition visualized by TRFS-Green, Average (4hr, 15 µM): 33991.5; TGR inhibition visualized by TRFS-Green, single replicate (4hr, 15 µM): 33999 and 33984; TGR inhibition visualized by TRFS-Green, Average (4hr, 30 µM): 32914; TGR inhibition visualized by TRFS-Green, single replicate (4hr, 30 µM): 32993 and 32835; TGR inhibition visualized by TRFS-Green, Average (5hr, 5 µM): 41567.5; TGR inhibition visualized by TRFS-Green, single replicate (5hr, 5 µM): 41048 and 42087; TGR inhibition visualized by TRFS-Green, Average (5hr, 15 µM): 38445; TGR inhibition visualized by TRFS-Green, single replicate (5hr, 15 µM): 39026 and 37864; TGR inhibition visualized by TRFS-Green, Average (5hr, 30 µM): 33178.5; TGR inhibition visualized by TRFS-Green, single replicate (5hr, 30 µM): 33374 and 32983; TGR inhibition visualized by TRFS-Green, Average (24hr, 5 µM): 78091; TGR inhibition visualized by TRFS-Green, single replicate (24hr, 5 µM): 78082 and 78100; TGR inhibition visualized by TRFS-Green, Average (24hr, 15 µM): 70233; TGR inhibition visualized by TRFS-Green, single replicate (24hr, 15 µM): 70452 and 70014; TGR inhibition visualized by TRFS-Green, Average (24hr, 30 µM): 60492.5; TGR inhibition visualized by TRFS-Green, single replicate (24hr, 30 µM): 60864 and 60121

— PMC10287695, “Non-covalent inhibitors of thioredoxin glutathione reductase with schistosomicidal activity in vivo” (Nature Communications, 2023)
